Source: ChEMBL document CHEMBL1129804, “First synthesis and cytotoxic activity of novel docetaxel analogs modified at the C18-position” (1997)
In brackets after ≈: the same amount, converted by molar mass.

Legend:
Assay type in all cases: functional
[1] = system: P388; assay: Compound was tested for growth inhibitory activity after 72 hr of continuous exposure against mouse leukemia P388; conditions: P388, 72 h
[2] = system: PC-6; assay: Compound was tested for growth inhibitory activity after 72 hr of continuous exposure against human lung cancer cell line PC-6; conditions: PC-6, 72 h
[3] = system: PC-6; assay: Compound was tested for growth inhibitory activity after 72 hr of continuous exposure against vincristine resistant cancer cell line PC-6/VCR; conditions: Homo sapiens, PC-6, 72 h

Row | SMILES | GI50 [1] [µg/mL] | GI50 [2] [µg/mL] | GI50 [3] [µg/mL]
1 | CC(=O)OCC1=C2[C@@H](O)C(=O)[C@@]3(C)[C@H]([C@H](OC(=O)c4ccccc4)[C@](O)(C[C@@H]1OC(=O)[C@H](O)[C@@H](NC(=O)OC(C)(C)C)c1ccccc1)C2(C)C)[C@]1(OC(C)=O)CO[C@@H]1C[C@@H]3O | 0.181 (≈ 0.209 µM) | 0.163 (≈ 0.188 µM) | > 1
2 | CC(=O)O[C@H]1C(=O)[C@@]2(C)[C@H]([C@H](OC(=O)c3ccccc3)[C@]3(O)C[C@H](OC(=O)[C@H](O)[C@@H](NC(=O)OC(C)(C)C)c4ccccc4)C(CN=[N+]=[N-])=C1C3(C)C)[C@]1(OC(C)=O)CO[C@@H]1C[C@@H]2O | 0.0401 (≈ 0.045 µM) | 0.0524 (≈ 0.0588 µM) | 0.39 (≈ 0.438 µM)
3 | CC(=O)O[C@@]12CO[C@@H]1C[C@H](O)[C@@]1(C)C(=O)[C@H](O)C3=C(CN4CCOCC4)[C@@H](OC(=O)[C@H](O)[C@@H](NC(=O)OC(C)(C)C)c4ccccc4)C[C@@](O)([C@@H](OC(=O)c4ccccc4)[C@H]21)C3(C)C | > 1 | > 1 | > 1
4 | CCC1=C2[C@@H](OC(C)=O)C(=O)[C@@]3(C)[C@H]([C@H](OC(=O)c4ccccc4)[C@](O)(C[C@@H]1OC(=O)[C@H](O)[C@@H](NC(=O)OC(C)(C)C)c1ccccc1)C2(C)C)[C@]1(OC(C)=O)CO[C@@H]1C[C@@H]3O | 0.00745 (≈ 0.00862 µM) | 0.0103 (≈ 0.0119 µM) | 0.167 (≈ 0.193 µM)
5 | CC(=O)O[C@H]1C(=O)[C@@]2(C)[C@H]([C@H](OC(=O)c3ccccc3)[C@]3(O)C[C@H](OC(=O)[C@H](O)[C@@H](NC(=O)OC(C)(C)C)c4ccccc4)C(C=O)=C1C3(C)C)[C@]1(OC(C)=O)CO[C@@H]1C[C@@H]2O | > 1 | 0.699 (≈ 0.809 µM) | > 1

Continued, in another order:

Row | GI50 [1] [µg/mL] | SMILES | GI50 [2] [µg/mL] | GI50 [3] [µg/mL]
6 | 0.00837 (≈ 0.01 µM) | CC(=O)O[C@@]12CO[C@@H]1C[C@H](O)[C@@]1(C)C(=O)[C@H](O)C3=C(CC#N)[C@@H](OC(=O)[C@H](O)[C@@H](NC(=O)OC(C)(C)C)c4ccccc4)C[C@@](O)([C@@H](OC(=O)c4ccccc4)[C@H]21)C3(C)C | 0.00481 (≈ 0.00578 µM) | 0.754 (≈ 0.905 µM)
7 | 0.393 (≈ 0.433 µM) | CC(=O)NCC1=C2[C@@H](OC(C)=O)C(=O)[C@@]3(C)[C@H]([C@H](OC(=O)c4ccccc4)[C@](O)(C[C@@H]1OC(=O)[C@H](O)[C@@H](NC(=O)OC(C)(C)C)c1ccccc1)C2(C)C)[C@]1(OC(C)=O)CO[C@@H]1C[C@@H]3O | 0.131 (≈ 0.144 µM) | > 1
8 | 0.00162 | CC(=O)O[C@@]12CO[C@@H]1C[C@H](O)[C@@]1(C)C(=O)[C@H](O)C3=C(C)[C@@H](OC(=O)[C@H](O)[C@@H](NC(=O)OC(C)(C)C)c4ccccc4)C[C@@](O)([C@@H](OC(=O)c4ccccc4)[C@H]21)C3(C)C.O.O.O [DOCETAXEL] | 0.00116 | 0.173
